Counter-ions that a name gives are not always drawn.
Columns and labels:
Test in all cases: glasshouse herbicide spray test, % weed control, adjuvant with glyphosate potassium salt
Assay type in all cases: in vivo
Conditions in all cases: 19 days after treatment
Echinochloa crus-galli = system: Echinochloa crus-galli
Procedure: (§1) The compound of Synthesis Example SE1 was tested as an adjuvant with glyphosate potassium salt, mixing the glyphosate and adjuvant in a tank mix using concentrations of glyphosate from 0.125 to 2 g.l-1 and of adjuvant from 0.003125 to 0.2% v/v. The tank mixes were sprayed as a herbicide on a variety of test species at an application rate of 200 l.ha^−1 to give application rates of glyphosate of from 25 to 400 g (active ingredient).ha^−1. The plants were grown in a warm glasshouse and assessed 19 days after treatment for % control—the mean of three replicates for visually assessed % weed control, relative to unsprayed plants of each species in the same test.
(§2) Example AE1 was repeated but using the compound made in Synthesis Example SE4 as the adjuvant.

Sorghum halepense = system: Sorghum halepense
Procedure: as §1, §2

Solanum nigra = system: Solanum nigra
Procedure: as §1, §2

Portulaca oleracea = system: Portulaca oleracea
Procedure: as §1, §2

Abutilon Theophrasti = system: Abutilon Theophrasti
Procedure: as §1, §2

Sida Spinosa = system: Sida Spinosa
Procedure: as §1, §2

[1] = glyphosate 25 g ai/ha, adjuvant 0.003125 % v/v
[2] = glyphosate 25 g ai/ha, adjuvant 0.0125 % v/v
[3] = glyphosate 25 g ai/ha, adjuvant 0.05 % v/v
[4] = glyphosate 25 g ai/ha, adjuvant 0.2 % v/v
[5] = glyphosate 50 g ai/ha, adjuvant 0.003125 % v/v
[6] = glyphosate 50 g ai/ha, adjuvant 0.0125 % v/v
[7] = glyphosate 50 g ai/ha, adjuvant 0.05 % v/v
[8] = glyphosate 50 g ai/ha, adjuvant 0.2 % v/v
[9] = glyphosate 100 g ai/ha, adjuvant 0.003125 % v/v
[10] = glyphosate 100 g ai/ha, adjuvant 0.0125 % v/v
[11] = glyphosate 100 g ai/ha, adjuvant 0.05 % v/v
[12] = glyphosate 100 g ai/ha, adjuvant 0.2 % v/v
[13] = glyphosate 200 g ai/ha, adjuvant 0.003125 % v/v
[14] = glyphosate 200 g ai/ha, adjuvant 0.0125 % v/v
[15] = glyphosate 200 g ai/ha, adjuvant 0.05 % v/v
[16] = glyphosate 200 g ai/ha, adjuvant 0.2 % v/v
[17] = glyphosate 400 g ai/ha, adjuvant 0.003125 % v/v
[18] = glyphosate 400 g ai/ha, adjuvant 0.0125 % v/v
[19] = glyphosate 400 g ai/ha, adjuvant 0.05 % v/v
[20] = glyphosate 400 g ai/ha, adjuvant 0.2 % v/v
[21] = glyphosate 25 g ai/ha, adjuvant 0 % v/v
[22] = glyphosate 50 g ai/ha, adjuvant 0 % v/v
[23] = glyphosate 100 g ai/ha, adjuvant 0 % v/v
[24] = glyphosate 200 g ai/ha, adjuvant 0 % v/v
[25] = glyphosate 400 g ai/ha, adjuvant 0 % v/v

Random 8-ethoxylate-2-propoxylate of N-methyl glucamine C8/C10 glycidyl ether [SE1]
% control ECHCG (Echinochloa crus-galli; [1]): 15% | % control ECHCG (Echinochloa crus-galli; [2]): 10% | % control ECHCG (Echinochloa crus-galli; [3]): 22% | % control ECHCG (Echinochloa crus-galli; [4]): 37% | % control ECHCG (Echinochloa crus-galli; [5]): 48% | % control ECHCG (Echinochloa crus-galli; [6]): 47% | % control ECHCG (Echinochloa crus-galli; [7]): 58% | % control ECHCG (Echinochloa crus-galli; [8]): 70% | % control ECHCG (Echinochloa crus-galli; [9]): 85% | % control ECHCG (Echinochloa crus-galli; [10]): 82% | % control ECHCG (Echinochloa crus-galli; [11]): 84% | % control ECHCG (Echinochloa crus-galli; [12]): 89% | % control ECHCG (Echinochloa crus-galli; [13]): 92% | % control ECHCG (Echinochloa crus-galli; [14]): 90% | % control ECHCG (Echinochloa crus-galli; [15]): 93% | % control ECHCG (Echinochloa crus-galli; [16]): 97% | % control SORHA (Sorghum halepense; [1]): 17% | % control SORHA (Sorghum halepense; [2]): 7% | % control SORHA (Sorghum halepense; [3]): 8% | % control SORHA (Sorghum halepense; [4]): 45% | % control SORHA (Sorghum halepense; [5]): 40% | % control SORHA (Sorghum halepense; [6]): 22% | % control SORHA (Sorghum halepense; [7]): 20% | % control SORHA (Sorghum halepense; [8]): 84% | % control SORHA (Sorghum halepense; [9]): 90% | % control SORHA (Sorghum halepense; [10]): 81% | % control SORHA (Sorghum halepense; [11]): 72% | % control SORHA (Sorghum halepense; [12]): 92% | % control SORHA (Sorghum halepense; [13]): 93% | % control SORHA (Sorghum halepense; [14]): 91% | % control SORHA (Sorghum halepense; [15]): 91% | % control SORHA (Sorghum halepense; [16]): 96% | % control SOLNI (Solanum nigra; [5]): 37% | % control SOLNI (Solanum nigra; [6]): 35% | % control SOLNI (Solanum nigra; [7]): 48% | % control SOLNI (Solanum nigra; [8]): 50% | % control SOLNI (Solanum nigra; [9]): 62% | % control SOLNI (Solanum nigra; [10]): 68% | % control SOLNI (Solanum nigra; [11]): 68% | % control SOLNI (Solanum nigra; [12]): 77% | % control SOLNI (Solanum nigra; [13]): 80% | % control SOLNI (Solanum nigra; [14]): 81% | % control SOLNI (Solanum nigra; [15]): 81% | % control SOLNI (Solanum nigra; [16]): 79% | % control SOLNI (Solanum nigra; [17]): 80% | % control SOLNI (Solanum nigra; [18]): 81% | % control SOLNI (Solanum nigra; [19]): 79% | % control SOLNI (Solanum nigra; [20]): 82% | % control POROC (Portulaca oleracea; [5]): 7% | % control POROC (Portulaca oleracea; [6]): 4% | % control POROC (Portulaca oleracea; [7]): 12% | % control POROC (Portulaca oleracea; [8]): 30% | % control POROC (Portulaca oleracea; [9]): 8% | % control POROC (Portulaca oleracea; [10]): 9% | % control POROC (Portulaca oleracea; [11]): 18% | % control POROC (Portulaca oleracea; [12]): 37% | % control POROC (Portulaca oleracea; [13]): 23% | % control POROC (Portulaca oleracea; [14]): 20% | % control POROC (Portulaca oleracea; [15]): 45% | % control POROC (Portulaca oleracea; [16]): 64% | % control POROC (Portulaca oleracea; [17]): 42% | % control POROC (Portulaca oleracea; [18]): 43% | % control POROC (Portulaca oleracea; [19]): 60% | % control POROC (Portulaca oleracea; [20]): 73% | % control ABUTH (Abutilon Theophrasti; [5]): 33% | % control ABUTH (Abutilon Theophrasti; [6]): 33% | % control ABUTH (Abutilon Theophrasti; [7]): 38% | % control ABUTH (Abutilon Theophrasti; [8]): 27% | % control ABUTH (Abutilon Theophrasti; [9]): 53% | % control ABUTH (Abutilon Theophrasti; [10]): 35% | % control ABUTH (Abutilon Theophrasti; [11]): 43% | % control ABUTH (Abutilon Theophrasti; [12]): 42% | % control ABUTH (Abutilon Theophrasti; [13]): 62% | % control ABUTH (Abutilon Theophrasti; [14]): 66% | % control ABUTH (Abutilon Theophrasti; [15]): 66% | % control ABUTH (Abutilon Theophrasti; [16]): 70% | % control ABUTH (Abutilon Theophrasti; [17]): 81% | % control ABUTH (Abutilon Theophrasti; [18]): 82% | % control ABUTH (Abutilon Theophrasti; [19]): 79% | % control ABUTH (Abutilon Theophrasti; [20]): 83% | % control SIDSP (Sida Spinosa; [5]): 30% | % control SIDSP (Sida Spinosa; [6]): 38% | % control SIDSP (Sida Spinosa; [7]): 42% | % control SIDSP (Sida Spinosa; [8]): 31% | % control SIDSP (Sida Spinosa; [9]): 33% | % control SIDSP (Sida Spinosa; [10]): 48% | % control SIDSP (Sida Spinosa; [11]): 48% | % control SIDSP (Sida Spinosa; [12]): 55% | % control SIDSP (Sida Spinosa; [13]): 63% | % control SIDSP (Sida Spinosa; [14]): 48% | % control SIDSP (Sida Spinosa; [15]): 72% | % control SIDSP (Sida Spinosa; [16]): 79% | % control SIDSP (Sida Spinosa; [17]): 79% | % control SIDSP (Sida Spinosa; [18]): 73% | % control SIDSP (Sida Spinosa; [19]): 83% | % control SIDSP (Sida Spinosa; [20]): 78%

O=C(O)CNCP(=O)(O)O [Glyphosate, glyphosate potassium salt, reference compound]
% control ECHCG (Echinochloa crus-galli; [21]): 21% | % control ECHCG (Echinochloa crus-galli; [22]): 47% | % control ECHCG (Echinochloa crus-galli; [23]): 67% | % control ECHCG (Echinochloa crus-galli; [24]): 82% | % control SORHA (Sorghum halepense; [21]): 8% | % control SORHA (Sorghum halepense; [22]): 47% | % control SORHA (Sorghum halepense; [23]): 79% | % control SORHA (Sorghum halepense; [24]): 82% | % control SOLNI (Solanum nigra; [22]): 37% | % control SOLNI (Solanum nigra; [23]): 65% | % control SOLNI (Solanum nigra; [24]): 77% | % control SOLNI (Solanum nigra; [25]): 78% | % control POROC (Portulaca oleracea; [22]): 3% | % control POROC (Portulaca oleracea; [23]): 10% | % control POROC (Portulaca oleracea; [24]): 22% | % control POROC (Portulaca oleracea; [25]): 38% | % control ABUTH (Abutilon Theophrasti; [24]): 53% | % control ABUTH (Abutilon Theophrasti; [25]): 73% | % control SIDSP (Sida Spinosa; [22]): 30% | % control SIDSP (Sida Spinosa; [23]): 35% | % control SIDSP (Sida Spinosa; [24]): 58% | % control SIDSP (Sida Spinosa; [25]): 75%
